Measurements taken from paper PMC4281096 (Journal of Medicinal Chemistry, 2014).

Experiments:
[1] = ref [24], cited from earlier work; for isomerization after 6 days: acetonitrile/water solution
[2] = test system: SJSA-1 osteosarcoma tumor cell line
[3] = test system: SJSA-1 osteosarcoma xenografts; conditions: 100 mg/kg, orally daily for 14 days
[4] = 17D 200 mg/kg or 31 100 mg/kg, daily oral 14 days
[5] = test system: p53 activation and apoptosis in SJSA-1 tumor tissue; conditions: mouse, in vivo, po, 100 mg/kg
[6] = target: recombinant human His-tagged MDM2 protein (residues 1–118) (Homo sapiens, UniProt Q00987); conditions: in words
Chain of recombinant human His-tagged MDM2 protein (residues 1–118) (Q00987 1-118): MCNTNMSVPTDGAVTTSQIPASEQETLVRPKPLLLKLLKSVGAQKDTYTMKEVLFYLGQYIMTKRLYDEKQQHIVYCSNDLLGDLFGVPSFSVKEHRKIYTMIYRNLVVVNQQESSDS

Structure (SMILES)	IC50 values in inhibition of cell growth [2]	other results
CC(C)(C)C[C@@H]1N[C@@H](C(=O)NCC[C@H](O)CO)[C@H](c2cccc(Cl)c2F)[C@]12C(=O)Nc1cc(Cl)ccc12 [MI-147]		isomerization after 6 days [1]: 8.6%
C[C@]1(O)C[C@@H](NC(=O)[C@@H]2NC3(CCC3)[C@]3(C(=O)Nc4cc(Cl)ccc43)[C@H]2c2cccc(Cl)c2F)C1 [Compound 28C]	low micromolar range	
O=C(O)c1ccc(NC(=O)[C@@H]2NC3(CCCCC3)[C@@]3(C(=O)Nc4cc(Cl)ccc43)[C@H]2c2cccc(Cl)c2F)cc1 [Compound 31, 4-((3′R,4′S,5′R)-6″-Chloro-4′-(3-chloro-2-fluorophenyl)-2″-oxodispiro[cyclohexane-1,2′-pyrrolidine-3′,3″-indoline]-5′-carboxamido)benzoic Acid]		mice with no detectable tumor ([3]; day 25, of eight mice): three; tumor regression ([3]; in words): achieved significant tumor regression; signs of toxicity during or after the treatment [4]: did not show any signs of toxicity; weight loss [4]: no weight loss; PARP cleavage (apoptosis induction) in tumor tissue [5]: robust cleavage of PARP; p53 activation (accumulation of p53, MDM2 and p21 proteins) in tumor tissue [5]: effectively activated p53
CC(C)(C)C[C@@H]1N[C@@H](C(=O)NCCN2CCOCC2)[C@H](c2cccc(Cl)c2F)[C@]12C(=O)Nc1cc(Cl)ccc12 [MI-63]		isomerization after 6 days [1]: 17.3%
CC(C)(C)C[C@@H]1N[C@@H](C(=O)N[C@H]2C[C@@](C)(O)C2)[C@H](c2cccc(Cl)c2F)[C@]12C(=O)Nc1cc(Cl)ccc12 [Compound 3]		% composition of compound in 1:1 CH3CN/H2O, 0 h ([1]; 0 h): 100%; isomerization after 6 days [1]: 2.3%
O=C(N[C@H]1CC[C@H](O)CC1)[C@@H]1NC2(CCC2)[C@]2(C(=O)Nc3cc(Cl)ccc32)[C@H]1c1cccc(Cl)c1F [Compound 15C, (3′S,4′S,5′R)-6″-Chloro-4′-(3-chloro-2-fluorophenyl)-N-((1R,4R)-4-hydroxycyclohexyl)-2″-oxodispiro[cyclobutane-1,2′-pyrrolidine-3′,3″-indoline]-5′-carboxamide]	low micromolar range	
O=C(NCC[C@H](O)CO)[C@@H]1NC2(CCC2)[C@]2(C(=O)Nc3cc(Cl)ccc32)[C@H]1c1cccc(Cl)c1F [Compound 25C]	low micromolar range	
N[C@@H](C(=O)N[C@H]1CC[C@H](O)CC1)[C@H](c1cccc(Cl)c1F)C1C(=O)Nc2cc(Cl)ccc21 (stereo partly drawn) [Compound 20]		binding to MDM2 [6]: does not bind to MDM2
O=C(NCCN1CCOCC1)[C@@H]1NC2(CCCCC2)[C@@]2(C(=O)Nc3cc(Cl)ccc32)[C@H]1c1cccc(Cl)c1F [Compound 23D]	sub-micromolar	
O=C(N[C@H]1CC[C@H](O)CC1)[C@@H]1NC2(CCCCC2)[C@@]2(C(=O)Nc3cc(Cl)ccc32)[C@H]1c1cccc(Cl)c1F [Compound 17D, (3′R,4′S,5′R)-6″-Chloro-4′-(3-chloro-2-fluorophenyl)-N-((1R,4R)-4-hydroxycyclohexyl)-2″-oxodispiro[cyclohexane-1,2′-pyrrolidine-3′,3″-indoline]-5′-carboxamide]	sub-micromolar	signs of toxicity during or after the treatment [4]: did not show any signs of toxicity; weight loss [4]: no weight loss
CC1(C)N[C@@H](C(=O)N[C@H]2CC[C@H](O)CC2)[C@H](c2cccc(Cl)c2F)[C@]12C(=O)Nc1cc(Cl)ccc12 [Compound 12D, (3R,4′S,5′R)-6-Chloro-4′-(3-chloro-2-fluorophenyl)-N-((1R,4R)-4-hydroxycyclohexyl)-2′,2′-dimethyl-2-oxospiro[indoline-3,3′-pyrrolidine]-5′-carboxamide]	low micromolar range	
O=C(NCC[C@H](O)CO)[C@@H]1NC2(CCCCC2)[C@@]2(C(=O)Nc3cc(Cl)ccc32)[C@H]1c1cccc(Cl)c1F [Compound 26D]	sub-micromolar	
O=C(NCCN1CCOCC1)[C@@H]1NC2(CCC2)[C@@]2(C(=O)Nc3cc(Cl)ccc32)[C@H]1c1cccc(Cl)c1F [Compound 22D]	low micromolar range	
C[C@]1(O)C[C@@H](NC(=O)[C@@H]2NC3(CCCCC3)[C@@]3(C(=O)Nc4cc(Cl)ccc43)[C@H]2c2cccc(Cl)c2F)C1 [Compound 29D]	sub-micromolar	
O=C(NCCN1CCOCC1)[C@@H]1NC2(CCC2)[C@]2(C(=O)Nc3cc(Cl)ccc32)[C@H]1c1cccc(Cl)c1F [Compound 22C]	low micromolar range	
O=C(N[C@H]1CC[C@H](O)CC1)[C@@H]1NC2(CCCC2)[C@@]2(C(=O)Nc3cc(Cl)ccc32)[C@H]1c1cccc(Cl)c1F [Compound 16D, (3′R,4′S,5′R)-6″-Chloro-4′-(3-chloro-2-fluorophenyl)-N-((1R,4R)-4-hydroxycyclohexyl)-2″-oxodispiro[cyclopentane-1,2′-pyrrolidine-3′,3″-indoline]-5′-carboxamide]	sub-micromolar	
CCCC1(CCC)N[C@@H](C(=O)N[C@H]2CC[C@H](O)CC2)[C@H](c2cccc(Cl)c2F)[C@]12C(=O)Nc1cc(Cl)ccc12 [Compound 14D, (3R,4′S,5′R)-6-Chloro-4′-(3-chloro-2-fluorophenyl)-N-((1r,4R)-4-hydroxycyclohexyl)-2-oxo-2′,2′-di-n-propylspiro[indoline-3,3′-pyrrolidine]-5′-carboxamide]	low micromolar range	
O=C(NCC[C@H](O)CO)[C@@H]1NC2(CCC2)[C@@]2(C(=O)Nc3cc(Cl)ccc32)[C@H]1c1cccc(Cl)c1F [Compound 25D]	low micromolar range	
O=C(N[C@H]1CC[C@H](O)CC1)[C@@H]1NC2(CCC2)[C@@]2(C(=O)Nc3cc(Cl)ccc32)[C@H]1c1cccc(Cl)c1F [Compound 15D, (3′R,4′S,5′R)-6″-Chloro-4′-(3-chloro-2-fluorophenyl)-N-((1R,4R)-4-hydroxycyclohexyl)-2″-oxodispiro[cyclobutane-1,2′-pyrrolidine-3′,3″-indoline]-5′-carboxamide]	low micromolar range	
